From patent publication US20040265323A1, “Compositions comprising pathogen elicited epithelial chemoattractant (eicosanoid hepoxilin A3), inhibitors thereof and methods of use thereof” (priority 2003, published 2004) come the findings set out here.

Format in all cases: cell-based, human
Test [1] has as its system PMN transmigration across T84 cell monolayers. Description: PMN transepithelial migration to imposed gradients of lipids across T84 monolayers. The settings on record: imposed gradients across T84 cell monolayers, basolateral-to-apical. On the procedure: Crude preparations of PEEC were collected from the apical surface of polarized T84 cell monolayers following infection with S. typhimurium SL1344 as previously described (McCormick et al., 1998). For these experiments, T84 intestinal epithelial cells (passages 45 to 65) were grown in a 1:1 mixture of Dulbecco-Vogt modified Eagles medium and Ham's F-12 medium supplemented with 15 mM Hepes buffer (pH 7.5), 14 mM NaHCO3, 40 mg/liter penicillin, 8 mg/liter ampicillin, 90 mg/liter streptomycin and 5% newborn calf serum. Polarized monolayers of T84 cells were formed and maintained on 0.33 cm^2 ring-supported collagen-coated polycarbonate filters (Costar Corp., Cambridge, Mass.) as previously described (Madara et al., 1992) with recently detailed modifications (Dharmsathaphorn and Madara, 1990). T84 cell monolayers reached a steady-state resistance 4 to 6 days after plating with some variability largely related to cell passage number. Cell culture inserts of inverted monolayers, used to study transmigration of PMN in the physiological basolateral-to-apical direction, were constructed as previously described (Madara et al., 1992; Dharmsathaphorn and Madara, 1990; Nash et al., 1991).
(§1) It was further examined if hepoxilin A3 acts in a gradient fashion to drive PMN migration from the basolateral to the apical epithelial surface. For these experiments, the physiologically directed (basolateral-to-apical) PMN transepithelial migration assay using cell culture inserts of inverted T84 monolayers has been used (McCormick et al., 1993; Parkos et al., 1992). Human PMN were isolated from normal volunteers, as described elsewhere (Parkos et al., 1992; Henson and Oades, 1975). PMN transmigration results were represented as PMN cell equivalents (CE) derived from a daily standard PMN dilution curve. PMN which completely traversed the monolayer were represented as the number of PMN (CE/ml in a total volume of 1 ml). Values were expressed as the mean and SD of an individual experiment done in triplicate repeated at least 3 times.
Arachidonic acid is the initial substrate used by a variety of metabolic pathways involving lipoxygenase (LO) activities—enzymes that add hydroxyl groups at specific carbon atoms of this 20-carbon fatty acid. […] Therefore, in addition to hepoxilin A3, a wide range of arachidonic acid metabolites for their ability to incite the transmigration of PMNs across T84 monolayers in vitro was examined (Table 1). […] This is consistent with previous reports that LTB4 is capable of inducing PMN transmigration.

The subject of test [2] is PMN. The test is described as follows: PMN intracellular Ca2+ mobilization. The settings on record: 5 μg/ml, FIG. 4B. From the text:
Further, crude PEEC preparations were collected from postinfected T84 cells monolayers. Samples were first passed through an Amicon ultra-filtration apparatus (Millipore Corp.; Bedford, Mass.) fitted with a 2,000 Da cut-off membrane. Filtrate components were bound to a Backerbond spe™ octadecyl extraction column (J. T. Baker; Philipsburg, N.J.) that was subsequently eluted with water, hexane, and finally methanol. The methanol fraction was dried under vacuum and resuspended in 50:50 (vol:vol) methanol:2 mM Tris HCl (pH 7.5) and injected onto a Vydac C18 (10 μm; 300 Å) semi-preparative column ([…]) equilibrated with 2 mM Tris-HCl (pH 7.5). A methanol gradient of 1-10% over 10 minutes, then 10-60% over 25 minutes, followed by 60-100% over 45 minutes (all at room temperature) was used to isolate active PEEC fractions. Active fractions, having no detectable absorbance at 280 nm and weak absorbance at 214 nm, were analyzed using a Genesis C18 (4 μm, 120 Å) analytical HPLC column (4.6×150 mm) equilibrated with 5 mM triethylamine/acetic acid (pH 7.2). […] (FIG. 2A and B).
(§2) To substantiate the notion that hepoxilin A3 was in fact the molecule responsible for PEEC bioactivity, it was examined whether synthetic hepoxilin A3 (BIOMOL, Plymouth Meeting, Pa.) could recapitulate PEEC bioactivity. […] Thus, authentic hepoxilin A3 recapitulates all known aspects of PEEC bioactivity consistent with the notion that hepoxilin A3 is in fact PEEC's active component.

Test [3] has as its system PMN. Description: PMN degranulation assessed by elastase release.
Text: as §2

Test [4] deals with S. typhimurium-induced PMN transepithelial migration, T84 cells. The test is described as follows: Inhibition of S. typhimurium-induced PMN transepithelial migration across T84 monolayers. As to conditions: for inhibition of S. typhimurium-induced PMN transepithelial migration: T84 incubated 1 hour with inhibitor, FIG. 9.
Text: as §1, with “PMN transmigration results were represented as PMN cell equivalents (CE) derived from a daily standard PMN dilution curve.” left out
Hepoxilin A3 is formed via the 12-lipoxygenase (LO) metabolism pathway of arachidonic acid. Therefore, the involvement of the 12-LO pathway in the ability of the enteric pathogen, S. typhimurium, to induce PMN transepithelial migration and elicit PEEC secretion was tested. […] For 12-LO inhibition, HBSS(+)-washed T84 cell monolayers were incubated in the presence baicalein [stock concentration at 1 mM in DMSO] for 48 hours at 37° C. Subsequently, S. typhimurium SL1344 was added to the apical surface of the T84 monolayers and after an incubation of 1 hour at 37° C., the cells were washed free of non-adherent bacteria and then processed for the PMN transmigration assay. […] For 5-LO inhibition, the T84 cells were washed with HBSS(+) and then were incubated for 24 hours in the presence of caffeic acid (stock concentration at 22 mM in DMSO). Both inhibitors were purchased form Biomol, Plymouth Meeting, Pa.
In each instance, the T84 cell monolayers were incubated for […] in the presence of the inhibitor prior to the addition of S. typhimurium.

For a further test, the system named is IL-8 secretion. Description: IL-8 secretion by S. typhimurium infected T84 cell monolayers. As to conditions: S. typhimurium infected T84, caffeic acid 22 μM.
Test [5] concerns PEEC/hepoxilin A3 secretion. Description: Apical PEEC/hepoxilin A3 release from S. typhimurium infected T84 cell monolayers. From the text: T84 cell monolayers were infected with S. typhimurium in the absence or presence of the 12-LO enzyme inhibitor and apical supernatants were examined for PEEC bioactivity. […] Moreover, since it had been previously shown that S. typhimurium via its effector SipA initiates an ARF6-dependent lipid-signaling cascade that directs the activation of PKC and release of PEEC, it was further examined if blocking PKC activity (which would occur upstream of 12-LO) also corresponds with a reduction in hepoxilin A3 bioactivity and release, as one would predict.

Molecules are shown by their SMILES. “Also recorded” adds a separate entry of the source.

Take `CCCCC/C=C\C[C@@H](O)/C=C/C=C/C=C/[C@@H](O)CCCC(=O)O` (relative stereo) [trans LTB4]: the “PMN transepithelial migration (PEEC activity) induced by added lipid” value (shortened to “PMN transepithelial migration … by added lipid”) in test [1] is on record as “failed to support events observed with hepoxilin A3”.

Turning to `CCCCC/C=C\C/C=C\C/C=C\C=C\C(=O)CCCC(=O)O` [5-KETE], in test [1], the “PMN transepithelial migration … by added lipid” value is “failed to effect a transmigration of PMNs”.

Turning to `CCCCC/C=C\C[C@@H](O)/C=C/C=C\C/C=C\CCCC(=O)O` [12(R)-HETE], the “PMN transepithelial migration … by added lipid” value in test [1] was “no PMN transmigration activity was observed”. Also, the “intracellular Ca2+ in PMN” value with PMN [2] is “failed to cause an increase in Ca^2+ mobilization”.

As to `CCCCC/C=C\C[C@H](O)/C=C/C=C\C/C=C\CCCC(=O)O` [12(S)-HETE], in test [1], the “PMN transepithelial migration … by added lipid” value is listed as “no PMN transmigration activity was observed”.

As to `CCCCC[C@H](O)/C=C/C=C\C/C=C\C/C=C\CCCC(=O)O` [15(S)-HETE], the “PMN transepithelial migration … by added lipid” value in test [1] is “only a low activity of PMN transmigration was observed”.

As for `CCCCC/C=C\C/C=C\C/C=C\C/C=C\CCCC(=O)O` [Arachidonic acid], the “PMN transepithelial migration … by added lipid” value in test [1] is on record as “could enhance the amount of PMN transmigration”.

Take `CCCCC/C=C\C[C@@H](O)/C=C/C=C/C=C\[C@@H](O)CCCC(=O)O` [LTB4]: the PMN degranulation result with PMN [3] is “causes activation and degranulation”.

With `O=C(O)/C=C/c1ccc(O)c(O)c1` [caffeic acid], the “S. typhimurium-induced PMN transepithelial migration with lipoxygenase inhibitor” value in test [4] (T84 pre-treated: baicalein 48 hours, caffeic acid 24 hours) was “failed to prevent S. typhimurium-induced PMN transepithelial migration; also recorded: no inhibition”. The IL-8 secretion in the test with IL-8 secretion stood at 558 ± 26 pg/mL.

As to `COc1ccc2c(c[n+](C)c3c4cc5c(cc4ccc23)OCO5)c1OC.[Cl-]` [chelerethyrine chloride], the “PEEC/hepoxilin A3 release” value in test [5] (5 μM prior to infection with wild-type S. typhimurium) was under 1.0 pmol.

As for `C=C(CC)C(=O)c1ccc(OCC(=O)O)c(Cl)c1Cl` [ethacrynic acid], the “inhibition of S. typhimurium-induced PMN transepithelial migration” value in test [4] is given as “significantly inhibited”.

For the compound `CCCCC/C=C\C[C@@H]1O[C@H]1C(O)/C=C\C/C=C\CCCC(=O)O` (stereo partly shown) [hepoxilin B3], the “PMN transepithelial migration … by added lipid” value in test [1] was “inactive; also recorded: failed to support events observed with hepoxilin A3”.

Turning to `CCCCC/C=C\C/C=C\CCCCCCCC(=O)O` [linoleic acid], the “PMN transepithelial migration … by added lipid” value in test [1] was “failed to demonstrate any PEEC activity”.

Regarding `CCCN(CCC)S(=O)(=O)c1ccc(C(=O)O)cc1` [probenecid], the “inhibition of S. typhimurium-induced PMN transepithelial migration” value in test [4] is reported as “significantly inhibited”.

As to `CC[C@]1(O)C[C@@H]2CN(CCc3c([nH]c4ccccc34)[C@@](C(=O)OC)(c3cc4c(cc3OC)N(C)[C@H]3[C@@](O)(C(=O)OC)[C@H](OC(C)=O)[C@]5(CC)C=CCN6CC[C@]43[C@@H]65)C2)C1` [vinblastine], in test [5] (Homo sapiens, ~0.5 nM, pathogen-induced, T84, read-out: inhibition of hepoxilin A3 secreted), the inhibition at 0.0005 µM is about 60%.
